In patent US20250276996A1, “CATIONICALLY-ENFRAMED HIGH DENSITY AROMATIC PEPTIDES” (Research Foundation of the City University of New York, priority 2022, published 2025):
Values joined by “and” are separate entries in the source; they are usually repeats but may differ in a detail not shown here. Equal entries are not always repeated. “Also recorded” adds a separate entry of the source. Non-standard residues stand in square brackets, D forms with d. Residues, ends and D or L forms follow the SMILES beside them. *: point of attachment. Biotin = O=C1N[C@H]2[C@H](CS[C@H]2CCCCC(=O)*)N1

Legend:
MDBK cells [1] = test: Uptake and intracellular localization of biotin-HDAP2 (streptavidin staining); format: cell-based, bovine; settings: for cellular uptake and intracellular localization: 37° C., up to 1 h
Experimental: (§1) Biotin-HDAP2 was studied using Madin-Darby Bovine Kidney Epithelial cell line (MDBK). Monolayers of cells were grown on 6-well plates for 3 days. On day 4, cells were washed twice with pre-warmed DMEM, and then incubated with 0.2 ml of DMEM containing 10 μM biotin-HDAP2 at 37° C. for up to 1 h. Cells were then washed and fixed in 4% paraformaldehyde and biotin-HDAP2 was detected using Alexa FLUOR™ 488 streptavidin. Cells were also co-stained with MitoTracker-Red or DAPI to identify cytoplasmic compartment or nuclei, respectively. Cells were then visualized in a fluorescent microscope (Nikon Eclipse-ci-SRS).
as §1, with “MitoTracker-Red” for “MitoTracker-Red or DAPI”, “identify mitochondria.” for “identify cytoplasmic compartment or nuclei, respectively.”, “visualized using” for “visualized in”
Biotin-HDAP2 uptake: To assess uptake of biotin-HDAP2 into cells, cultures were incubated in serum-free media for three days to deplete endogenous biotin (Birk et al., 2013) and then treated with biotin-HDAP2 (1 μM) for one hour. Cells were fixed with 4% paraformaldehyde and incubated for one hour with Alexa Fluor 594 conjugated streptavidin (1:100, Jackson ImmunoResearch) to localize the peptide within the cells, Hoechst 33342 (10 μg/ml, Novus) to label nuclei, and Mito Tracker Red CMXRos (MTR; 50 nM, Invitrogen) to identify mitochondria; MTR binds to thiol groups, which are heavily concentrated in the mitochondrial matrix. Cells were rinsed and imaged immediately in the dish using a Nikon Eclipse 50i fluorescent microscope with a 40× immersion objective (NA 0.8).
Intracellular Localization of biotin-HDAP2: Intracellular targeting of biotin-HDAP2 was determined by incubating MDBK cells (ATCC-CCL22) that were grown in biotin-free media for 72 hours, with 10 μM of N-biotinylated biotin-HDAP2 for 1 hour. Cells were then fixed with 4% paraformaldehyde, permeabilized with 0.1% Triton X-100, and treated with streptavidin conjugated with Alexa Fluor 488 (SA) for 30 minutes at room temperature. […]
SA fluorescence was normalized to Hoechst fluorescence to account for differences in cell number in each field. The intensity of SA fluorescence was measured in each field, using the “Analyze” feature in ImageJ to compute the mean pixel intensity (in arbitrary fluorescence units) from the images. […]

[2] = Displacement of nonyl acridine orange (NAO) from POPC-CL liposomes; format: binding, bovine
Experimental: The resulting multilamellar vesicles were vortexed lightly and sized into small unilamellar vesicles by heated bath sonication for 25 min. All liposomes were cooled to ambient temperature before use.
Interaction of biotin-HDAP2 Peptide with Phospholipids: The ability of biotin-HDAP2 to displace nonyl acridine orange (NAO), a fluoroprobe known to selectively bind CL was determined. Interaction of biotin-HDAP2 with phospholipids was examined by measuring changes in the fluorescence spectra of 3 μM NAO (Molecular Devices, Sunnyvale, CA)) with excitation at 480 nm. CL and POPC in liposomes were use at 30 μM. Dose response curves were done with 30 μM CL, biotin-HDAP2 (0, 2.5, 5, 10, 20, and 30 μM), and 3 μM of NAO (ex/em at 480 nm/520 nm). All experiments were done in 10 mM Hepes (pH 7.4) to optimize electrostatic interactions of peptides with phospholipids.

MDBK cells [3] = test: NAO binding to mitochondria in MDBK cells; format: cell-based, bovine; settings: NAO 1 μM, biotin-HDAP2 10 μM
MDBK cells [4] = test: Serum starvation cell death, methylene blue staining; format: cell-based, bovine; settings: serum-free media 5-7 days, read-out: EC50, prevention of cell death
Experimental: MDBK cells were incubated in serum-free media for 5-7 days in the presence or absence of different concentrations of biotin-HDAP2. At the end of the incubation period, media was removed, the cells were fixed in 4% PFA and then stained with Methylene Blue Loeffler for 30 minutes. Images were obtained using a Tiffen Zoom Camera, interfaced with PC Image, and analyzed using ImageJ NIH software. Experiments were conducted 5 times in triplicates for each experimental condition. Biotin-HDAP2 prevented cell death in a dose-dependent manner with EC50 of about 300 nM (FIG. 4).

MDBK cells [5] = test: Cell survival in serum-free media (AlamarBlue); format: cell-based, bovine
Experimental: Serum starvation experiments: Biotin-HDAP2's ability to improve cell viability and function following serum starvation was assessed. For all experiments, MDBK cells were seeded in 35 mm cell culture dishes (5×10^4 cells) in DMEM medium with 10% FBS (Fetal Bovine Serum) for 24 hrs and then incubated in serum-free medium with or without biotin-HDAP2 (1 μM) for 5 days to induce cell death. For quantitative measurements, wells were washed to remove dead cells, and then stained with AlamarBlue for 60 min. Quantitative analysis of dye conversion was measured using a fluorescent plate reader (550 ex/580 em) and cell viability was expressed as folds change (increase or decrease) over scrum-starved untreated cells.
Effects of peptides on cell survival in serum-free media: Cell survival in serum starvation conditions was studied in the presence and absence of biotin-HDAP2 using MDBK cells. Cells were plated at a density of 1-2×10^5 cells/well in 96 well plates in DMEM/10% FBS media. The following day, cells were washed and the medium replaced with DMEM serum-free media in the presence or absence of different concentrations of biotin-HDAP2 and incubated for 5 days. Cell viability was assessed using the Resaruzin (Alamar blue) indicator dye. Quantitative analysis of dye conversion was measured using a fluorescent plate reader (ex/em=550/580 nm) and viability was expressed as fold increase over of untreated cells.

[6] = tested on: retinal ganglion cells (RGCs); test: Retinal ganglion cell survival in retinal explants; settings: Brn3a labeling
Excerpt: FIG. 8 illustrates retinal explants labeled with Brn3a (green) to label retinal ganglion cells (RGCs), ToPro3 to label all cell nuclei (red) and ChAT to label displaced amacrine cells (blue).

mice = settings: 3 mg/kg daily for 14 days or biweekly for two months

Question: For `N=C(N)NCCC[C@@H](NC(=O)[C@H](Cc1ccccc1)NC(=O)[C@H](Cc1ccccc1)NC(=O)[C@@H](CCCNC(=N)N)NC(=O)CCCC[C@@H]1SC[C@@H]2NC(=O)N[C@@H]21)C(N)=O` [biotin-HDAP2, Biotin-dArg-Phe-Phe-dArg-NH2] (Biotin-[dR]FF[dR]-NH2), which “cellular uptake and intracellular localization” value (MDBK cells [1]; 10 μM) is on record?
Answer: targets mitochondria; also recorded: penetrates cell membranes

Question: What about the “cellular uptake and intracellular localization” value (MDBK cells [1]; 10 μM, listed as Biotin-HDAP2) of the same molecule?
Answer: primarily localized to the cytoplasmic compartment; also recorded: taken into mitochondria; also recorded: co-localized with MitoTracker-Red

Question: And the “speed of entry into the cell compared with biocytin” value (MDBK cells [1]; 10 μM, 1 hour, serum-starved MDBK cells)?
Answer: about 6 times

Question: And the “level of biotin-HDAP2 in cells relative to endogenous biotin” value (MDBK cells [1]; MDBK cells, streptavidin AF 488)?
Answer: > 10 ×

Question: What about the “effect on intensity of NAO fluorescence” value [2] of the same molecule?
Answer: decreased the intensity of NAO fluorescence to background levels; also recorded: decreases the intensity of NAO fluorescence with POPC-CL liposomes in a dose-dependent manner

Question: And the “NAO binding to mitochondria” value (MDBK cells [3])?
Answer: inhibited NAO binding to mitochondria in MDBK cells

Question: What about the EC50 (MDBK cells [4]) of the same molecule?
Answer: ~0.3 µM

Question: What about the “AlamarBlue fluorescence / protection during serum starvation” value (MDBK cells [5]; 1 μM, 5 days serum starvation) of the same molecule?
Answer: increased AlamarBlue fluorescence

Question: And the “increase in cell survival compared to untreated controls” value (MDBK cells [5]; 1 μM, serum-free 5 days, AlamarBlue)?
Answer: 50%

Question: And the EC50 (MDBK cells [5]; serum-free, 5 days, AlamarBlue, read-out: EC50, cell survival in serum-free conditions)?
Answer: ~0.1 µM and 0.1 µM

Question: And the “survival of retinal ganglion cells in retinal explants” value [6]?
Answer: promoted survival of retinal ganglion cells in retinal explants

Question: What about the toxicity in mice (mice) of the same molecule?
Answer: no adverse effects
